Results: patent US12545650B2, “Bisanthracene derivatives having solubilizing substituent, and organic electroluminescence device using same” (LG Chem, Ltd., priority 2020, dated 2026)

Assay: Solubility test of PAPAP derivatives in cyclohexanone with thermal stirring
Format: physicochemical
Settings: 10 mg compound in 1 mL cyclohexanone, thermal stirring at about 100° C.
Description: Solubility tests were performed on PAPAP-1 and PAPAP-0 obtained from the Synthetic Example using cyclohexanone as a solvent. 10 mg of each of PAPAP-1 and PAPAP-0 was measured, 1 mL of cyclohexanone was added thereto, and thermal stirring was performed at a temperature of about 100° C.
The solubilities of PAPAP-12 and PAPAP-1 were tested using cyclohexanone as a solvent. 10 mg of each of PAPAP-12 and PAPAP-1 was measured, 1 mL of cyclohexanone was added thereto, and thermal stirring was performed at a temperature of about 100° C.

solubility in cyclohexanone | Compound
insoluble | COc1ccc(-c2c3ccccc3c(-c3ccc(-c4c5ccccc5c(-c5ccc(C#N)cc5)c5ccccc45)cc3)c3ccccc23)cc1 [PAPAP-0, reference compound]
soluble | c1ccc(-c2ccccc2-c2c3ccccc3c(-c3ccc(-c4c5ccccc5c(-c5cccc(N(c6ccccc6)c6ccccc6)c5)c5ccccc45)cc3)c3ccccc23)cc1 [PAPAP-12]

Compound | solubility in cyclohexanone
c1ccc(-c2ccccc2-c2c3ccccc3c(-c3ccc(-c4c5ccccc5c(-c5ccc(N(c6ccccc6)c6ccccc6)cc5)c5ccccc45)cc3)c3ccccc23)cc1 [PAPAP-1] | soluble
